Measurements reported in article PMC2879362, “Design of Group IIA Secreted/Synovial Phospholipase A2 Inhibitors: An Oxadiazolone Derivative Suppresses Chondrocyte Prostaglandin E2 Secretion” (PLoS ONE, 2010).

Experiments:
[1] = test system: atherosclerosis in apolipoprotein-E-null mice; parameters: method as in PMID 19129734; conditions: cited from earlier work
[2] = target: T1, human GIIAPLA2 (hGIIAPLA2) (Homo sapiens, UniProt P14555); test: In vitro fluorimetric PLA2 assay (β-py-C10-PG substrate); type: biochemical; conditions: 2 µM β-py-C10-PG, 1 ng/mL hGIIAPLA2
T1 construct: hGIIAPLA2 was prepared as previously described [33]; made in house
T1 sequence (P14555 21-144): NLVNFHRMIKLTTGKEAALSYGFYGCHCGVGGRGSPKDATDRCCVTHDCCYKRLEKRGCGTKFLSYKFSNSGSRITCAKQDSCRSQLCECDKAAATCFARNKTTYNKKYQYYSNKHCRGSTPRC
Protocol: (§1) The compounds C1-C8 were submitted to fluorimetric assay to determine their inhibitory potencies and selectivity towards human GIIAPLA2 (hGIIAPLA2) versus porcine group IB PLA2 (pGIBPLA2) (Table 2). GIBPLA2 is an enzyme of the same family as GIIAPLA2 (sPLA2) but is mainly involved in digestion of dietary phospholipids and is secreted by the pancreas. Lipophilicity parameters, log P, of these products are calculated by use of Rekker's fragmental data (Table 2). The molecules C1-C8 are specific inhibitors of hGIIAPLA2 because none inhibited pGIBPLA2 at the highest concentration tested (100 µM). Such selectivity implies that C1-C8 should not interfere with the digestion process.
(§2) Fatty-acid free BSA and pancreatic PLA2 were from Sigma. hGIIAPLA2 was prepared as previously described. The fluorescent substrate for PLA2 assay, 1-hexadecanoyl-2-(10-pyrenedecanoyl)-sn-glycero-3-phosphoglycerol, ammonium salt (β-py-C10-PG) was from Molecular Probes (Eugene). PLA2 activity was evaluated as previously described with β-py-C10-PG used as a substrate (2 µM final concentration). In a total volume of 1 mL, the standard reaction medium contained 50 mM Tris-HCl (pH 7.5), 500 mM NaCl, 1 mM EGTA, 2 µM β-py-C10-PG, 0.1% fatty-acid free BSA and 6 ng/mL pancreatic PLA2 or 1 ng/mL hGIIAPLA2. The fluorescence (λex = 342 nm and λem = 398 nm) of the enzymatic reaction medium was recorded for 3 min with use of a spectrofluorimeter LS 50 (Perkin-Elmer) equipped with a Xenon lamp. The reaction was initiated by the addition of CaCl2 (10 mM, final concentration). The increase in fluorescence was continuously recorded for 1 min, and PLA2 activity was calculated as previously described. When used, the inhibitor was added to the reaction medium after introduction of BSA. The activity is expressed in micromoles of fluorescent β-py-C10-PG hydrolyzed per min. The standard error of the mean of three independent experiments was less than 10%, which allows for the determination of the IC50 values (concentration of inhibitors producing 50% inhibition) of each compound.

[3] = target: T2, porcine group IB PLA2 (pGIBPLA2) (Sus scrofa, UniProt P00592); test: as above; type: biochemical; conditions: 2 µM β-py-C10-PG, 6 ng/mL pancreatic PLA2
T2 construct: purchased Sigma
T2 sequence (P00592 23-146): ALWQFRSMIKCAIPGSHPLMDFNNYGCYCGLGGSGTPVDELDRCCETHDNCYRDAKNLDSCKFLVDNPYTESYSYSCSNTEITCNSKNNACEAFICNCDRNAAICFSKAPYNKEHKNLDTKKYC
Protocol: as §1, §2

[4] = test system: IL-1β-stimulated PGE2 secretion in articular chondrocytes; test: IL-1β-stimulated PGE2 secretion in articular chondrocytes (EIA); type: cell-based, rabbit; conditions: C1 at 8 µM, IL-1β 1 ng/mL (data not shown)
Protocol: We tested the effect of C8 on the IL-1β-stimulated secretion of PGE2 in chondrocytes. PGE2 synthesis takes place mainly in response to cell activation by IL-1β, and its generation accounts for many of the actions induced by this cytokine. In vitro, IL-1β induces the expression of COX-2 by chondrocytes, which results in increased PGE2 production. PGE2 release thus represents a powerful IL-1β- and PLA2-dependent inflammatory marker in our cell model. Chondrocytes were treated for 20 h with IL-1β alone or 1 h after the addition of C8. […] In DMEM alone, at concentrations of 0.31-, 0.62-, 0.94-, and 1.24-µM, C8 decreased the production of PGE2 induced by IL-1β by 59-, 58-, 74-, and 80-%, respectively (Fig. 4A). In DMEM supplemented with 0.1% BSA, at concentrations of 0.31-, 0.62-, 0.94-, 1.24-, 2.48-, and 4.96-µM, C8 decreased the production of PGE2 induced by IL-1β by 31-, 30-, 45-, 43-, 81-, and 92-%, respectively (Fig. 4B). In DMEM supplemented with 2% FCS, at concentrations of 0.31-, 0.62-, 0.94-, 1.24-, 2.48-, and 4.96-µM, C8 decreased the production of PGE2 induced by IL-1β by 26-, 48-, 49-, 54-, 68-, and 68-%, respectively (Fig. 4C). […] The effect of C8 was then evaluated at the extreme concentrations (0.31- and 4.96-µM) in DMEM supplemented with 2% FCS and containing decreasing (1-, 0.5-, and 0.25-ng/mL) IL-1β concentrations (Table 3). The anti-IL-1β inhibitory effect of C8 at 0.31 µM increases when IL-1β concentration decreases. […] This is probably due to the fact that at 4.96 µM, the inhibitory effect of C8 on IL-1β-induced PGE2 production is maximal. […] Thus, C8, but not C1, decreases the IL-1β-stimulated PGE2 secretion in a dose-dependent manner in the three culture medium compositions used.
Articular chondrocytes were isolated from 5-week-old Fauve de Bourgogne female rabbits (CPA, Orleans, France) and cultured at the first passage in conditions avoiding cell dedifferentiation as previously described. Cells were cultured at 37°C in 12-well plates in Ham's F-12 medium containing 10% FCS, 20 IU/mL penicillin, and 20 µg/mL streptomycin (all from Invitrogen) until nearly confluent. Then medium was replaced with DMEM (Invitrogen) containing 20 IU/mL penicillin, and 20 µg/mL streptomycin and, if necessary, 0.1% fatty acid free BSA (Sigma) or 2% FCS. At this time the C8 compound dissolved in DMSO (Sigma) was added to the medium (the amount of DMSO was kept at 1‰ (v/v) in all the wells). 1 h after the addition of C8, IL-1β (PeproTech) was added to the medium. Consequently, chondrocytes were incubated for 20 h with IL-1β and for 21 h with C8.
20 h after the addition of IL-1β to the chondrocytes, culture media were collected, and aliquots were stored at −80°C until PGE2 and nitrite quantification. PGE2 concentration in culture media was determined by use of an enzyme immunoassay (EIA) kit (PGE2 EIA Kit-monoclonal; Cayman Chemical). Nitrite concentration was determined by a spectrophotometry method based on the Griess reaction. Briefly, 200 µL of culture medium or sodium nitrite (NaNO2, Merck) standard dilutions were mixed with 100 µL Griess reagent [0.5% (w/v) sulphanilic acid (Merck), 0.05% (w/v) N(1-naphtyl)ethylenediamine (Merck), 30% (v/v) acetic acid, 1.5 N HCl] and incubated for 10 min at 50°C. The absorbance was measured at 540 nm.

SMILES | effect on atherosclerosis [1] | IC50 [2] [µM] | IC50 [3] [µM] | effect on PGE2 secretion stimulated by IL-1β [4]
CCc1c(C(=O)C(N)=O)c2c(OCC(=O)O)cccc2n1Cc1ccccc1 [Varespladib] | reduce atherosclerosis | – | – | –
O=c1[nH]c(Cc2ccc(OCCCCCn3ccc4cc(Cl)ccc43)cc2)no1 [C4] | – | 6.5 ± 1.8 | > 100 | –
COc1ccc2c(ccn2CCCCCOc2ccc(Cc3noc(=O)[nH]3)cc2)c1 [C5] | – | 2.5 ± 0.5 | > 100 | –
Cc1nc2cc(OCCCCCOc3ccc(Cc4noc(=O)[nH]4)cc3)ccc2s1 [C3] | – | 5 ± 1.2 | > 100 | –
O=c1[nH]c(Cc2ccc(OCCCCCOc3ccccc3)cc2)no1 [C7] | – | 35 ± 1.8 | > 100 | –
O=c1[nH]c(Cc2ccc(OCCCCCn3ccc4ccccc43)cc2)no1 [C1, 3-{4-[5-(indol-1-yl)pentoxy]benzyl}-4H-1,2,4-oxadiazol-5-one] | – | 5 ± 0.7 | > 100 | does not decrease
O=c1[nH]c(Cc2ccc(OCCCCCOc3ccc(-c4ccccc4)cc3)cc2)no1 [C6] | – | 3 ± 0.2 | > 100 | –
O=c1[nH]c(Cc2ccc(OCCCCCOc3ccccc3-c3ccccc3)cc2)no1 [C2] | – | 10 ± 1.5 | > 100 | –
